The text below walks through data of ChEMBL document CHEMBL1157033, “Developing a complete pharmacology for AMPA receptors: a perspective on subtype-selective ligands” (Bioorg Med Chem, 2010).

Assay [1] has as its target T1, Glutamate receptor 1 (Homo sapiens, UniProt P42261). Briefly: Agonist activity at recombinant GluA1 receptor expressed in Xenopus oocytes. Format: functional, cell-based, Oocyte.
In assay [2] the target is T2, Glutamate receptor 3 (Homo sapiens, UniProt P42263). The assay can be described thus: Agonist activity at recombinant GluA3 receptor expressed in Xenopus oocytes. The class given is functional, cell-based, Oocyte.
For assay [3], the target named is T1, Glutamate receptor 1. Briefly: Agonist activity at recombinant GluA1 receptor flip isoform expressed in Xenopus oocytes. Format: functional, cell-based, Oocyte.
In assay [4] the target is T2, Glutamate receptor 3. Briefly: Agonist activity at recombinant GluA3 receptor flip isoform expressed in Xenopus oocytes. The class given is functional, cell-based, Oocyte.
The nature of assay [5]: Agonist activity at recombinant GluA4 receptor flip isoform expressed in Xenopus oocytes. The class given is functional, cell-based. The conditions noted are these: Oocyte.
The target in assay [6] is T2, Glutamate receptor 3. Briefly: Agonist activity at recombinant GluA3 receptor flop isoform expressed in Xenopus oocytes. Format: functional, cell-based, Oocyte.
Assay [7] is described as follows: Agonist activity at recombinant GluA4 receptor flop isoform expressed in Xenopus oocytes. The class given is functional, cell-based. The note with it: Oocyte.
For assay [8], the target named is T1, Glutamate receptor 1.
Assay [9] can be described thus: Antagonist activity at recombinant GluA2A4 receptor flip isoform expressed in Xenopus oocytes. Format: functional. The note with it: Xenopus laevis, Oocyte.
Assay [10] has as its system Oocyte. The assay can be described thus: Activity at recombinant GluA2A4 receptor flop isoform expressed in Xenopus oocytes assessed as potentiation of glutamate-induced current at 5 mM relative to control. Format: cell-based.
In assay [11] the test system is Oocyte. Briefly: Activity at recombinant GluA2A4 receptor flip isoform expressed in Xenopus oocytes assessed as potentiation of glutamate-induced current at 5 mM relative to control. The class given is cell-based.
Assay [12] addresses T3, Glutamate receptor AMPA 1/2 (Rattus norvegicus) (UniProt P19491+P19490). Briefly: Activity at rat recombinant GluA1A2 receptor flip isoform expressed in HEK293 cells assessed as potentiation of 3000 uM glutamate-induced current at 100 uM relative to control. The class given is cell-based.
The target in assay [13] is Glutamate receptor 1 (Rattus norvegicus) (UniProt P19490). Briefly: Activity at rat recombinant GluA1 receptor flip isoform expressed in HEK293 cells assessed as potentiation of 3000 uM glutamate-induced current at 100 uM relative to control. Format: cell-based.
Assay [14] has the same target. Briefly: Activity at rat recombinant GluA1 receptor flop isoform expressed in HEK293 cells assessed as potentiation of 3000 uM glutamate-induced current at 100 uM relative to control. The class given is cell-based.
Assay [15] concerns the target Glutamate receptor 3 (Rattus norvegicus) (UniProt P19492). The assay can be described thus: Activity at rat recombinant GluA3 receptor flip isoform expressed in HEK293 cells assessed as potentiation of 3000 uM glutamate-induced current at 100 uM relative to control. The class given is cell-based.
Assay [16] has the same target. The assay can be described thus: Activity at rat recombinant GluA3 receptor flop isoform expressed in HEK293 cells assessed as potentiation of 3000 uM glutamate-induced current at 100 uM relative to control. Format: cell-based.
Assay [17] addresses Glutamate receptor 4 (Rattus norvegicus) (UniProt P19493). Briefly: Activity at rat recombinant GluA4 receptor flip isoform expressed in HEK293 cells assessed as potentiation of 3000 uM glutamate-induced current at 100 uM relative to control. The class given is cell-based.
Assay [18] has the same target. Briefly: Activity at rat recombinant GluA4 receptor flop isoform expressed in HEK293 cells assessed as potentiation of 3000 uM glutamate-induced current at 100 uM relative to control. Format: cell-based.
For assay [19], the target named is T1, Glutamate receptor 1. Briefly: Activity at recombinant GluA1 receptor flip isoform expressed in Xenopus oocytes assessed as potentiation of 10 uM AMPA-induced current at 100 uM relative to control. Format: cell-based. The note with it: Oocyte.
The target in assay [20] is T1, Glutamate receptor 1. Briefly: Activity at recombinant GluA1 receptor flop isoform expressed in Xenopus oocytes assessed as potentiation of 10 uM AMPA-induced current at 100 uM relative to control. The class given is cell-based. The conditions noted are these: Oocyte.
For assay [21], the target named is T2, Glutamate receptor 3. The assay can be described thus: Activity at recombinant GluA3 receptor flip isoform expressed in Xenopus oocytes assessed as potentiation of 10 uM AMPA-induced current at 100 uM relative to control. Format: cell-based. The conditions noted are these: Oocyte.
Assay [22] has as its target T2, Glutamate receptor 3. The assay can be described thus: Activity at recombinant GluA3 receptor flop isoform expressed in Xenopus oocytes assessed as potentiation of 10 uM AMPA-induced current at 100 uM relative to control. The class given is cell-based. The note with it: Oocyte.
In assay [23] the target is T4, Glutamate receptor AMPA 1/2 (Homo sapiens) (UniProt P42262+P42261). Briefly: Activity at recombinant GluA1A2 receptor flop isoform expressed in Xenopus oocytes assessed as potentiation of 10 uM AMPA-induced current at 100 uM relative to control. Format: cell-based. The note with it: Oocyte.
Assay [24] has as its target T5, Glutamate receptor AMPA 2/3 (Homo sapiens) (UniProt P42263+P42262). Briefly: Activity at recombinant GluA2A3 receptor flop isoform expressed in Xenopus oocytes assessed as potentiation of 10 uM AMPA-induced current at 100 uM relative to control. The class given is cell-based. The note with it: Oocyte.
For assay [25], the target named is T4, Glutamate receptor AMPA 1/2 (Homo sapiens). The assay can be described thus: Activity at recombinant GluA1 receptor flip/GluA2 receptor flop isoform expressed in Xenopus oocytes assessed as potentiation of 10 uM AMPA-induced current at 100 uM relative to control. Format: cell-based. The note with it: Oocyte.
Assay [26] shares this target. The assay can be described thus: Activity at recombinant GluA1 receptor flop/GluA2 receptor flip isoform expressed in Xenopus oocytes assessed as potentiation of 10 uM AMPA-induced current at 100 uM relative to control. Format: cell-based. The note with it: Oocyte.
The target in assay [27] is T5, Glutamate receptor AMPA 2/3 (Homo sapiens). The assay can be described thus: Activity at recombinant GluA2 receptor flop/GluA3 receptor flip isoform expressed in Xenopus oocytes assessed as potentiation of 10 uM AMPA-induced current at 100 uM relative to control. The class given is cell-based. The conditions noted are these: Oocyte.
Assay [28] has the same target. Briefly: Activity at recombinant GluA2 receptor flip/GluA3 receptor flop isoform expressed in Xenopus oocytes assessed as potentiation of 10 uM AMPA-induced current at 100 uM relative to control. The conditions noted are these: Oocyte. Format: cell-based.
The target in assay [29] is T3, Glutamate receptor AMPA 1/2 (Rattus norvegicus). Briefly: Activity at rat recombinant GluA1A2 receptor flop isoform expressed in HEK293 cells assessed as potentiation of 3000 uM glutamate-induced current at 100 uM relative to control. Format: cell-based.
Assay [30] concerns the target T6, Glutamate receptor ionotropic, AMPA 2/3 (Rattus norvegicus) (UniProt P19491+P19492). Briefly: Activity at rat recombinant GluA2A3 receptor flip isoform expressed in HEK293 cells assessed as potentiation of 3000 uM glutamate-induced current at 100 uM relative to control. Format: cell-based.
Assay [31] concerns the target T6, Glutamate receptor ionotropic, AMPA 2/3 (Rattus norvegicus). Briefly: Activity at rat recombinant GluA2A3 receptor flop isoform expressed in HEK293 cells assessed as potentiation of 3000 uM glutamate-induced current at 100 uM relative to control. The class given is cell-based.
Assay [32] concerns the target T7, Glutamate receptor AMPA 2/4 (Rattus norvegicus) (UniProt P19491+P19493). Briefly: Activity at rat recombinant GluA2A4 receptor flip isoform expressed in HEK293 cells assessed as potentiation of 3000 uM glutamate-induced current at 100 uM relative to control. The class given is cell-based.
In assay [33] the target is T7, Glutamate receptor AMPA 2/4 (Rattus norvegicus). Briefly: Activity at rat recombinant GluA2A4 receptor flop isoform expressed in HEK293 cells assessed as potentiation of 3000 uM glutamate-induced current at 100 uM relative to control. The class given is cell-based.
In assay [34] the target is T8, Glutamate receptor 1 (Rattus norvegicus, UniProt P19490). Briefly: Agonist activity at rat recombinant GluA1 receptor expressed in Xenopus oocytes. Format: functional, cell-based, Oocyte.
In assay [35] the target is T9, Glutamate receptor 3 (Rattus norvegicus, UniProt P19492). The assay can be described thus: Agonist activity at rat recombinant GluA3 receptor expressed in Xenopus oocytes. The class given is functional, cell-based, Oocyte.
In assay [36] the target is T8, Glutamate receptor 1. Briefly: Agonist activity at rat recombinant GluA1 receptor flop isoform expressed in Xenopus oocytes. Format: functional, cell-based, Oocyte.
The target in assay [37] is T9, Glutamate receptor 3. Briefly: Agonist activity at rat recombinant GluA3 receptor flop isoform expressed in Xenopus oocytes. The class given is functional, cell-based, Oocyte.

SMILES strings stand for the structures.

T1 sequence (P42261 whole entry): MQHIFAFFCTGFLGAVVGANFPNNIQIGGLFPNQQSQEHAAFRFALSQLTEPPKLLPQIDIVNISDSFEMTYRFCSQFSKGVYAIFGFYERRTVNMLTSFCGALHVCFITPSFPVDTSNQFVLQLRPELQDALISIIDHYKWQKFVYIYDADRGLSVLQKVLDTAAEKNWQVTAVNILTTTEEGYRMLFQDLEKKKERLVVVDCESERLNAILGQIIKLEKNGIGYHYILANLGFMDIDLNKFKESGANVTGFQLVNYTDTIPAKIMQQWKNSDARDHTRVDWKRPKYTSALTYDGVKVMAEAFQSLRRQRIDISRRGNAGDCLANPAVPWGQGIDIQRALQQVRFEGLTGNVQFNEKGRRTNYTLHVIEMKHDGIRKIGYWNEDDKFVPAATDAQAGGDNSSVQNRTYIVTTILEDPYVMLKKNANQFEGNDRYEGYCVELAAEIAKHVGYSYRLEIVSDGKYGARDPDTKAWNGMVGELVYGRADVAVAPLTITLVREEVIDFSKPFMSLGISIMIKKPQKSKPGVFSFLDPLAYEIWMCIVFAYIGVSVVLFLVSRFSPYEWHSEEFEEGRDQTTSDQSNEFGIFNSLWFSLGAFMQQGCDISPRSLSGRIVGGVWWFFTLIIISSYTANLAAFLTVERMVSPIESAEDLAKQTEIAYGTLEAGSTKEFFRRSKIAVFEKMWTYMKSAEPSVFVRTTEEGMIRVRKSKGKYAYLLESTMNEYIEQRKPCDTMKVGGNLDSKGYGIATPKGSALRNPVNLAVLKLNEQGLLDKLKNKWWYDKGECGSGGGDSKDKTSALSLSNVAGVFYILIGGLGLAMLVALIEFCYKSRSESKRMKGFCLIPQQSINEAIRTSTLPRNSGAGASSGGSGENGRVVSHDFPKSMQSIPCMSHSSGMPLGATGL
T2 sequence (P42263 whole entry, canonical isoform): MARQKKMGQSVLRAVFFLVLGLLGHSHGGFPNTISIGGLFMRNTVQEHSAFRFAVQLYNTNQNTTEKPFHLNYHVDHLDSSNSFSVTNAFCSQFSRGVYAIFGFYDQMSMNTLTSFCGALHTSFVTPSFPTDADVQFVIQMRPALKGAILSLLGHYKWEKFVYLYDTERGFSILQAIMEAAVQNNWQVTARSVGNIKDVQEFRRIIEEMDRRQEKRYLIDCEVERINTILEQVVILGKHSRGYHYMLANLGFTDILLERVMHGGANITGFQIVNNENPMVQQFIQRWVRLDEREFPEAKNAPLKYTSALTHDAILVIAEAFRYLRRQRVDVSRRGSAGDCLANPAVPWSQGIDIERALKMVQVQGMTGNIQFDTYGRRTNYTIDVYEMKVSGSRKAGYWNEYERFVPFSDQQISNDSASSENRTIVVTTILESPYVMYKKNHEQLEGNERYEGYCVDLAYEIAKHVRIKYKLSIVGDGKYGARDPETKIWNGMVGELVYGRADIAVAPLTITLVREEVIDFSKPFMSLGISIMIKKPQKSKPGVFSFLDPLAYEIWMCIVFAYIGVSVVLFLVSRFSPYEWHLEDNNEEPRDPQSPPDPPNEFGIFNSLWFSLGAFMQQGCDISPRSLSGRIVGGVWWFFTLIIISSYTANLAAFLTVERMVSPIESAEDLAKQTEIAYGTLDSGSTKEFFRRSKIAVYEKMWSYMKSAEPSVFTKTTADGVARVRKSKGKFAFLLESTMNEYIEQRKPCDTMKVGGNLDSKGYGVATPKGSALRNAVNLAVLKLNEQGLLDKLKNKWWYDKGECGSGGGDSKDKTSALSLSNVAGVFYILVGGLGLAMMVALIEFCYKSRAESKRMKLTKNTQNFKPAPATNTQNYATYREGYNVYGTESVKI
T9 sequence (P19492 whole entry, canonical isoform): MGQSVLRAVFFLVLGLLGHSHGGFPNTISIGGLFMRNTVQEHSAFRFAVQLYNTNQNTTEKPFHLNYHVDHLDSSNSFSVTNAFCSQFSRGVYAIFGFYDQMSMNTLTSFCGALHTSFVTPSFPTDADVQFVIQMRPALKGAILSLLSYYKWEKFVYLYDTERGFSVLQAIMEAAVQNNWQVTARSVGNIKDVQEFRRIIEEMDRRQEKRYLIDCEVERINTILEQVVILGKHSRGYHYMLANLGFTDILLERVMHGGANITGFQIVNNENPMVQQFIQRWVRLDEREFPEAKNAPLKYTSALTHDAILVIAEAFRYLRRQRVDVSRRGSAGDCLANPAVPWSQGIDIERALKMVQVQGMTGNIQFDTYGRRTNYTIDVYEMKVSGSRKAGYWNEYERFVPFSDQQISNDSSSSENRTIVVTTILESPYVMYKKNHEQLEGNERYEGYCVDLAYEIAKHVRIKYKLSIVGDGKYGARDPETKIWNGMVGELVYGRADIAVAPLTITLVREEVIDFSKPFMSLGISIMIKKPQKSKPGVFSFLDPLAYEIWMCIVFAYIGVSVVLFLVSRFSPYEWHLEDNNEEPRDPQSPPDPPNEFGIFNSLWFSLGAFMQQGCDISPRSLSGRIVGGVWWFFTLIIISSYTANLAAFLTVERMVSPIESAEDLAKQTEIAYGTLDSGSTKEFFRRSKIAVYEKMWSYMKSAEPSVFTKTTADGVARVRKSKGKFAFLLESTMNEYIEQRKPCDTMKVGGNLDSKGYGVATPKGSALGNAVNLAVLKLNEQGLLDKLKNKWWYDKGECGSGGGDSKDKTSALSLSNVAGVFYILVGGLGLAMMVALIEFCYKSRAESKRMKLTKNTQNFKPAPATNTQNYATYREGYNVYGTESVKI
Glutamate receptor 3 (Rattus norvegicus), sequence (P19492 whole entry, canonical isoform): as above
Glutamate receptor 1 (Rattus norvegicus), sequence (P19490 whole entry, canonical isoform): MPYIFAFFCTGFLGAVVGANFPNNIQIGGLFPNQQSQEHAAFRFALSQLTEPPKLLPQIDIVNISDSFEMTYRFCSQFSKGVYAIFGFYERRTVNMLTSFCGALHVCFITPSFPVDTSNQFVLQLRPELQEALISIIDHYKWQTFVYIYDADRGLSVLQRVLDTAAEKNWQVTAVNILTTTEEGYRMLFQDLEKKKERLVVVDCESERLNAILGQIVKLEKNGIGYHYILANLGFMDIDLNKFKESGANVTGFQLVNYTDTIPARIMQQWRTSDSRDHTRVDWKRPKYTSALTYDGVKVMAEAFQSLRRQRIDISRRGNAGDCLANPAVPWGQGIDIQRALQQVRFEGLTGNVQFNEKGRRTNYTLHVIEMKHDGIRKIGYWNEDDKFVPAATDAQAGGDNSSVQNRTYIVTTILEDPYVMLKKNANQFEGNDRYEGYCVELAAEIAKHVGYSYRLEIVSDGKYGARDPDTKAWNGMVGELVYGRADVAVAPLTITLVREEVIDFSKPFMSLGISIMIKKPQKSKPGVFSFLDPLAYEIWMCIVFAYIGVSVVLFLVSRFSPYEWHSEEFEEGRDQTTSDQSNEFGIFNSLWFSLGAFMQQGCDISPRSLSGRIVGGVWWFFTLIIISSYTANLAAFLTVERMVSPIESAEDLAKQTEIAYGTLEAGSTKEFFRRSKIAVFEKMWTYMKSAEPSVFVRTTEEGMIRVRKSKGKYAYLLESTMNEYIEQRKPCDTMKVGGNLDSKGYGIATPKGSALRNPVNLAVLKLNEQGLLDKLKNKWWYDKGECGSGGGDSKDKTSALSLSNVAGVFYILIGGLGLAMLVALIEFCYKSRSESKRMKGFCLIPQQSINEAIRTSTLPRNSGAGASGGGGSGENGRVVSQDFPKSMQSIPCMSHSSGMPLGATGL
T8 sequence (P19490 whole entry): as the sequence (P19490 whole entry, canonical isoform) above
Glutamate receptor 4 (Rattus norvegicus), sequence (P19493 whole entry, canonical isoform): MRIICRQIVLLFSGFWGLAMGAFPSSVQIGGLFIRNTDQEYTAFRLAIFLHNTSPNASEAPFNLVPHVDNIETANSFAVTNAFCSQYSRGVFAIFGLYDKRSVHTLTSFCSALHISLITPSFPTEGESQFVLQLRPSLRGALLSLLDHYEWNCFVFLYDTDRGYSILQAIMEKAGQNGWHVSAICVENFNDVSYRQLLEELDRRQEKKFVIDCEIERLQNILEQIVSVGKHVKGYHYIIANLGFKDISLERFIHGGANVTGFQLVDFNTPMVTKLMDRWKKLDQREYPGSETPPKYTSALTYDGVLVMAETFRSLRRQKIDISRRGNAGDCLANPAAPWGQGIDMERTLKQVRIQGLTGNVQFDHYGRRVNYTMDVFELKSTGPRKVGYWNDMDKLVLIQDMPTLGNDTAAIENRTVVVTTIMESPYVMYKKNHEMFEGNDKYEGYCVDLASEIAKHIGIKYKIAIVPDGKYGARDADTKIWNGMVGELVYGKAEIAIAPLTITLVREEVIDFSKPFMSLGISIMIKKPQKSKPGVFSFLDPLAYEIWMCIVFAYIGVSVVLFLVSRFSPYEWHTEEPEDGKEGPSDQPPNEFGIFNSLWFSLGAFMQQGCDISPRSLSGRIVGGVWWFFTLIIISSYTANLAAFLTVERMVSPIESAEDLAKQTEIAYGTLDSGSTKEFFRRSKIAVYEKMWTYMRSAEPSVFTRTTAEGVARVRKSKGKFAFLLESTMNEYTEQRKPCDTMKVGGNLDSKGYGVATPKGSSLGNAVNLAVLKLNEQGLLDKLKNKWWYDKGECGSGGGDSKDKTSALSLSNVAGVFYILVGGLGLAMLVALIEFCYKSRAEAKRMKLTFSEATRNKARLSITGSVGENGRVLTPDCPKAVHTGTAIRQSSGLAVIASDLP

Consider `N[C@@H](Cn1cc(F)c(=O)[nH]c1=O)C(=O)O`, for which the EC50 (commonly the concentration at which the effect is half-maximal) at Glutamate receptor 1 [1] turned out to be 380 nM; on Glutamate receptor 3 [2], 20900 nM; on Glutamate receptor 1 [3] it was 382 nM; at Glutamate receptor 3 [4] it was 20900 nM; in [5] it was 11900 nM.

Regarding `Cc1onc(C(=O)O)c1C[C@H](N)C(=O)O`, the results for the half-maximal effective concentration (EC50) (on Glutamate receptor 3 [6]; in assay [7]; at Glutamate receptor 1 [8]) were 1600 nM, 1700 nM and 270 nM, respectively.

For `N#Cc1cc2c(cc1[N+](=O)[O-])=NC(=O)C(=O)N=2`, the Kb (in general, the equilibrium dissociation constant of an antagonist, usually derived from a functional assay) in assay [9] amounted to 501 nM.

For `COc1ccc(C(=O)N2CCCC2=O)cc1`, the fold change (FC) in the assay on Oocyte [10] is 77; in the assay with Oocyte [11] it was 7.5.

Take `NC(=O)COc1c(F)cc(SCCNS(=O)(=O)c2ccccc2)cc1F`: the fold change (FC) was 20 in assay [12]; 1.9 in assay [13]; 2.9 in [14]; 2.51 in assay [15]; 11.1 in [16]; 11 in assay [17]. Further, the fold change (FC) in [18] was found to be 75; at Glutamate receptor 1 [19], 1.9; at Glutamate receptor 1 [20], 2.9; at Glutamate receptor 3 [21] it was 2.51; at Glutamate receptor 3 [22], 11.1; in assay [23], 7.44. The fold change (FC) in [24] worked out at 21.1; in [25] it was 20.1; in assay [26], 9.49; in assay [27], 4.78; in assay [28], 8.85; in assay [29], 124. The fold change (FC) worked out at 28 in assay [30], 138 in [31], 10 in assay [32] and 74 in [33].

Consider `NC(Cc1ccc(=O)[nH][n+]1[O-])C(=O)O` (racemic), for which the EC50 at Glutamate receptor 1 [1] was 260 nM; on Glutamate receptor 3 [2], 41600 nM; at Glutamate receptor 1 [3], 258 nM; at Glutamate receptor 3 [4], 41600 nM.

With `Cc1onc(C(=O)O)c1CC(N)C(=O)O` (racemic), the EC50 was determined as 1100 nM at Glutamate receptor 1 [34], 100 nM on Glutamate receptor 3 [35], 1100 nM at Glutamate receptor 1 [36] and 100 nM at Glutamate receptor 3 [37].
